Measurements as given in patent publication US20100003326A1, “DRUG DELIVERY DEVICE COMPRISING A PHARMACEUTICALLY OR BIOLOGICALLY ACTIVE COMPONENT AND AN INFRARED ABSORBING COMPOUND” (DOLPHYS TECHNOLOGIES B.V., priority 2006, published 2010).

Columns and labels:
[1] = Infrared-triggered release of ibuprofen from P(BMA-MMA) disc in physiological buffer; type: physicochemical; conditions: physiological buffer at 30° C.; for speed of release of ibuprofen from the disc: P(BMA-MMA) disc, 290 ppm Lumogen IR 788, 5 wt % ibuprofen
Protocol: An object consisting of a pressed circular disc with a diameter of 2.5 cm and thickness of 2 mm was placed in a holder in a vessel completely containing 90 mL physiological buffer at 30° C. […] Addition of ibuprofen led to a lowering of the Tg to about 35° C. The disc was irradiated perpendicularly to the surface with the same laser diode module as in Example 1a, the laser power being 750 mW and the distance between fiber exit and disc 50 mm. The water layer between sample and disc was approximately 20 mm. A glass lid was placed on the vessel to prevent water evaporation. The vessel was completely filled with water, thus avoiding reflection and refraction effects at an additional air/water interface. The near-infrared irradiation only encountered an air to glass and a glass to water transition. Irradiation was applied in an alternating manner, periods of irradiation of 4 hours being alternated by periods of 20 hours without irradiation.

[2] = Ibuprofen blood plasma concentration after infrared triggering of subcutaneous strand in rat; type: in vivo; conditions: sc; for concentration at 1 day: first time; for concentration at 2 day: second time (next day)
Protocol: An object consisting of a compounded strand with a diameter of 2.0 mm and a length of 2.0 cm. […] Addition of ibuprofen led to a lowering of the Tg to about −1° C.
The strand was placed subcutaneously in a rat. After 1 day, the strand was irradiated perpendicularly to the length axis with the same laser diode module as in Example 1a, for 15 minutes, the laser power set at 750 mW and the distance between fiber exit and the skin of the rat being 20 mm. The next day this procedure was repeated again.
Blood samples were taken before, during and after triggering on both days. As a consequence of irradiation, the concentration of ibuprofen in the blood plasma increased the first time from below 5 ng/ml (no detection peak of LC-MS/MS was found) to 25 ng/ml and the second time from below 5 ng/ml (no peak was found) to 19 ng/ml.

[3] = subcutaneous strand with 40 wt % ibuprofen, as a consequence of 15 minutes irradiation at 750 mW

- speed of release of ibuprofen from the disc ([1]; during irradiation (785 nm laser, 750 mW, 4 hours periods)): around 3.9×10^−6 g/h
- speed of release of ibuprofen from the disc ([1]; without irradiation (base value)): less than 1×10^−6 g/h
- concentration at 1 day ([2]; subcutaneous poly(L,DL-Lactide) strand with 40 wt % ibuprofen, before irradiation, LC-MS/MS): < 5 ng/mL
- concentration at 1 day [2, 3]: 25 ng/mL
- concentration at 2 day [2, 3]: 19 ng/mL
- concentration at 2 day ([2]; subcutaneous strand with 40 wt % ibuprofen, before irradiation, LC-MS/MS): < 5 ng/mL
Compound: CC(C)Cc1ccc(C(C)C(=O)O)cc1 (stereo not shown) [ibuprofen]
- release of ibuprofen after stopping irradiation ([1]; after stopping irradiation, same disc): fell virtually immediately to the base value
